From publication PMC4993765, “Shikonin Inhibits Intestinal Calcium-Activated Chloride Channels and Prevents Rotaviral Diarrhea” (Frontiers in Pharmacology, 2016)

Target: T1, TMEM16A (Homo sapiens, UniProt Q5XXA6)
T1 construct: gene ANO1
T1 sequence (Q5XXA6 1-986): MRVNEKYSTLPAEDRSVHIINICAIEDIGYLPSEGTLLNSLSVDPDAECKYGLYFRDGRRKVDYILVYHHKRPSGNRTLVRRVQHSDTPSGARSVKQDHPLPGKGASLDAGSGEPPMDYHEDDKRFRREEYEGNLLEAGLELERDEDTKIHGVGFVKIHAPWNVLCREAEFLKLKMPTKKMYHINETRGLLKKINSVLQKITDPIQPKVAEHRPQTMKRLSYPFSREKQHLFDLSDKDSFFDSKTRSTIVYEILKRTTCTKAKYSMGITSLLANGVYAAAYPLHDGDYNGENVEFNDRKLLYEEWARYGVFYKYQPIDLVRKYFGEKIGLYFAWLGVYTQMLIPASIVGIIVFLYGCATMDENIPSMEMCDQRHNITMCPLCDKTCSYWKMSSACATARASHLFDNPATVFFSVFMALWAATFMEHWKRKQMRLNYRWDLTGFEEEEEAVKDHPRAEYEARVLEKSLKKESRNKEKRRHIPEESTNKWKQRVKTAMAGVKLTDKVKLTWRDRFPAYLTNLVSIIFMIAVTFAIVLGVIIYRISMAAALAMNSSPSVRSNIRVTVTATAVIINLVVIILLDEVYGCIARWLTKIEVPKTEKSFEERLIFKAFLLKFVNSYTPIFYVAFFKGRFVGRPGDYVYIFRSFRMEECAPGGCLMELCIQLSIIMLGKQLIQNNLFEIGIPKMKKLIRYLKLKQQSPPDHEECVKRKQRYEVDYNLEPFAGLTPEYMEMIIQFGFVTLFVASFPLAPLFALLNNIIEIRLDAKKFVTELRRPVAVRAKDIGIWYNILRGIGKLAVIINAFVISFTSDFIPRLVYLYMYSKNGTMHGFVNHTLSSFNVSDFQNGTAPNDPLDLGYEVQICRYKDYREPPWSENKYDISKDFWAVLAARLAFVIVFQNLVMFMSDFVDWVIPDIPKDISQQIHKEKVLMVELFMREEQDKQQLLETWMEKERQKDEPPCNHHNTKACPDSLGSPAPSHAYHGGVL
Experiment: short-circuit current (Eact-induced Cl- current) in basolaterally permeabilized FRT cells expressing TMEM16A; also YFP fluorescence quenching
Assay type: cell-based

## CC(C)=CC[C@@H](O)C1=CC(=O)c2c(O)ccc(O)c2C1=O [shikonin]
  IC50: 1500 nM
